The source of these data is BindingDB's records for patent US8680132 (University of Michigan, 2014).

This assay has as its target E3 ubiquitin-protein ligase Mdm2 (Homo sapiens, UniProt Q00987). Kind of assay: Fluorescence-polarization Binding Assay. As to conditions: pH 7.5.

SMILES strings stand for the structures.

E3 ubiquitin-protein ligase Mdm2, sequence (Q00987 whole entry): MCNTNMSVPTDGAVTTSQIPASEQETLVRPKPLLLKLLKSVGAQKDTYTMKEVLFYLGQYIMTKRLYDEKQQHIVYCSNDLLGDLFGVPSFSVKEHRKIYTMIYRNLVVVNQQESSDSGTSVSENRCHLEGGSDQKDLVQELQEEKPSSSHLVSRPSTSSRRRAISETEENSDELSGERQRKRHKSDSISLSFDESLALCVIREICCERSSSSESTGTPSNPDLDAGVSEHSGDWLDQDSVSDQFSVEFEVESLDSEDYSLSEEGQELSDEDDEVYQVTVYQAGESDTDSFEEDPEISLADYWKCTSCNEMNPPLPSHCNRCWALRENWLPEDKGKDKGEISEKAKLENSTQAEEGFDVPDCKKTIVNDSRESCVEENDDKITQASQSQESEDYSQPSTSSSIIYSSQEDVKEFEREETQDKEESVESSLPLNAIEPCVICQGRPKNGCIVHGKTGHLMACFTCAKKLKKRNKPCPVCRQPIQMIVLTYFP

One may read the IC50 as the point on the concentration scale where inhibition reaches its midpoint. In turn, `O=C(NCC[C@H](O)CO)[C@@H]1N[C@H](CC2CCCCC2)[C@]2(C(=O)Nc3cc(Cl)c(F)cc32)[C@H]1c1cccc(Cl)c1` gave an IC50 of less than 1000 nM.
